In ChEMBL document CHEMBL1909511, “Inhalation by design: novel tertiary amine muscarinic M₃ receptor antagonists with slow off-rate binding kinetics for inhaled once-daily treatment of chronic obstructive pulmonary disease” (J Med Chem, 2011):

Legend:
[1] = Intrinsic clearance in human liver microsomes assessed per mg of protein in presence of NADPH
[2] = test system: Cavia porcellus; assay: Bronchodilator activity in Dunkin-Hartley guinea pig assessed as inhibition of […] lung resistance after cumulative intratracheal administration in micelle solution at hourly intervals challenged each time 1 hr later with methacholine; format: functional, organism-based
[3] = test system: Canis familiaris; assay: Bronchodilator activity in Beagle dog assessed as inhibition of methacholine-induced lung resistance after cumulative intratracheal administration in micelle solution at hourly intervals challenged each time 1 hr later with methacholine; format: functional, Canis lupus familiaris
[4] = target: T1, Muscarinic acetylcholine receptor M3 (Homo sapiens, UniProt P20309)
Target sequence in this assay (P20309 whole entry, looked up): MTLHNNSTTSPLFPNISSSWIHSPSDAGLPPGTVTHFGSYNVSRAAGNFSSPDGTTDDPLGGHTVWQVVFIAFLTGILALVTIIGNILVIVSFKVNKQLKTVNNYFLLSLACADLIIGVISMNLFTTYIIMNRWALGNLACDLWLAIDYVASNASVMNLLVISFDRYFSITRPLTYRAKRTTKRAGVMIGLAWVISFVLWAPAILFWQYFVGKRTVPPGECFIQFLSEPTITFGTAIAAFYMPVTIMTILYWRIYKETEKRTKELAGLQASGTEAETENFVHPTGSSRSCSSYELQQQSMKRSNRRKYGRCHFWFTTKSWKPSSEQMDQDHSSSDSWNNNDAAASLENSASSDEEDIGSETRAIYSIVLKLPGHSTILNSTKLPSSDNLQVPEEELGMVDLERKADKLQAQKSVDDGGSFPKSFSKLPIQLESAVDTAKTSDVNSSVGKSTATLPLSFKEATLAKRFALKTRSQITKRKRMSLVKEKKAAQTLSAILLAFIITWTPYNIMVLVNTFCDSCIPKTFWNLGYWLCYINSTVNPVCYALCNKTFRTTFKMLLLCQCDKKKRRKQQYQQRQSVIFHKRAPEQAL
Description: Displacement of radioligand from M3 receptor assessed as dissociation half life

[5] = target: T2, Muscarinic acetylcholine receptor M2 (Homo sapiens, UniProt P08172); assay: Displacement of [3H]-NMS from human recombinant M2 receptor expressed in CHO cells after 24 hrs by filter binding assay; format: cell-based
T2 sequence (P08172 whole entry): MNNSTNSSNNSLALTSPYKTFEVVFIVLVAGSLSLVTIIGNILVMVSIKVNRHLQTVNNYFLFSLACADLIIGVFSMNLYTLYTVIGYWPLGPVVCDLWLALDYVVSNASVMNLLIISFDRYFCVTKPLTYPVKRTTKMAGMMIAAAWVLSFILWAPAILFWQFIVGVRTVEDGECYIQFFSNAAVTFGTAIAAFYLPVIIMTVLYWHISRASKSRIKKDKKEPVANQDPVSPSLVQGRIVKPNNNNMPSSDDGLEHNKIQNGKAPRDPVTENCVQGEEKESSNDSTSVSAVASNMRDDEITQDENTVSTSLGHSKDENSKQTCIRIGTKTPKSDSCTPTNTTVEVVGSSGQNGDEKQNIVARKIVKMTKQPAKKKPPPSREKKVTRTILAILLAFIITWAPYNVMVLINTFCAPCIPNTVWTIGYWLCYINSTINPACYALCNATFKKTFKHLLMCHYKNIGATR

[6] = target: T3, Muscarinic acetylcholine receptor M4 (Homo sapiens) (UniProt P08173); assay: Displacement of [3H]-NMS from human recombinant M4 receptor expressed in CHO cells assessed as dissociation half life at 100 fold human M4 receptor binding Ki concentration after 24 hrs by dilution-offset filter binding assay; format: cell-based
T3 sequence (whole entry): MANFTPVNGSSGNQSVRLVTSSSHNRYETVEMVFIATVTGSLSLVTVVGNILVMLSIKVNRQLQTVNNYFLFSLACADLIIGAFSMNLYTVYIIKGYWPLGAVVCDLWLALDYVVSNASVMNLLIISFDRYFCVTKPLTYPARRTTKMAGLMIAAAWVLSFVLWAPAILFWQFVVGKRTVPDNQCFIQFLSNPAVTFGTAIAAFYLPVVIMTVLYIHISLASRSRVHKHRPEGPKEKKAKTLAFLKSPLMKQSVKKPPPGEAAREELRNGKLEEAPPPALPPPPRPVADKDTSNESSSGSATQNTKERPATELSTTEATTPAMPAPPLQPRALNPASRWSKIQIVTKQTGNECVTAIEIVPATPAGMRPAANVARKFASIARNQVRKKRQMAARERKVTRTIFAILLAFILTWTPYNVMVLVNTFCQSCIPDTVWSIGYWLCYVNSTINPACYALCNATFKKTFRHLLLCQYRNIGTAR

[7] = test system: Canis familiaris; assay: Bronchodilator activity in methacholine challenged Beagle dog assessed as intrinsic duration of action at 10 ug intratracheally administered as single dose in micelle solution; format: functional, Canis lupus familiaris
[8] = Intrinsic clearance in human hepatocytes assessed per million cells
[9] = target: T4, Muscarinic acetylcholine receptor M5 (Homo sapiens, UniProt P08912); assay: Displacement of [3H]-NMS from human recombinant M5 receptor expressed in CHO cells after 24 hrs by filter binding assay; format: cell-based
T4 sequence (P08912 whole entry): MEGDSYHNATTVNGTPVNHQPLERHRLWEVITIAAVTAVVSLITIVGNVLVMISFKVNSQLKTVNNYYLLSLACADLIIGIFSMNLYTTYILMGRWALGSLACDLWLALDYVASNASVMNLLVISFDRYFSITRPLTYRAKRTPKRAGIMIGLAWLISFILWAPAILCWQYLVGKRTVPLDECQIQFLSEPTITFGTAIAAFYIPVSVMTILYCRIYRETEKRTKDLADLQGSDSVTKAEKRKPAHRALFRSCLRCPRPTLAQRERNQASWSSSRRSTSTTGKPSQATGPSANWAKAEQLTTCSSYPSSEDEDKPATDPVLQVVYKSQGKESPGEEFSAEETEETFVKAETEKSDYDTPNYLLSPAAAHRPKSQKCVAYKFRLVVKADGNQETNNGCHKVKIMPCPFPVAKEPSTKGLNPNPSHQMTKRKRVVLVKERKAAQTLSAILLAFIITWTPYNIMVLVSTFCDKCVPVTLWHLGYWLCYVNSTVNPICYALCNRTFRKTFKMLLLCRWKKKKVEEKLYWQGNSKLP

[10] = test system: Oryctolagus cuniculus; assay: Toxicity in rabbit lung cough model assessed as induction of cough production at 2000 ug administered intratracheally; format: organism-based; settings: in vivo, inhaled_or_intranasal
[11] = test system: MDR1; assay: Apparent permeability across apical to basal side in dog MDCK expressing MDR1; format: ADME, cell-based, Canis lupus familiaris
[12] = Total clearance in iv dosed rat; format: ADME, organism-based; settings: in vivo
[13] = target: T1, Muscarinic acetylcholine receptor M3; settings: CHO
Target sequence in this assay (P20309 whole entry, looked up): as the sequence (P20309 whole entry, looked up) above

[14] = test system: Canis familiaris; assay: Toxicity in methacholine challenged Beagle dog assessed effect on heart rate at 3 ug intratracheally administered as single dose in micelle solution; format: organism-based, Canis lupus familiaris; settings: in vivo, inhaled_or_intranasal
[15] = Half life in iv dosed rat; format: ADME, organism-based; settings: in vivo
[16] = test system: Canis familiaris; assay: Toxicity in methacholine challenged Beagle dog assessed effect on heart rate at 10 ug intratracheally administered as single dose in micelle solution; format: organism-based, Canis lupus familiaris; settings: in vivo, inhaled_or_intranasal
[17] = test system: Rattus norvegicus; assay: Unbound clearance in iv dosed rat; format: ADME, organism-based; settings: in vivo
[18] = Intrinsic clearance in human liver microsomes assessed per mg of protein by glucuronidation assay in presence of Brijj-58 and UDPGA
[19] = target: T1, Muscarinic acetylcholine receptor M3; remark: listed apart in the source
Target sequence in this assay (P20309 whole entry, looked up): as the sequence (P20309 whole entry, looked up) above

[20] = Volume of distribution at steady state in iv dosed rat; format: ADME, organism-based; settings: in vivo, read-out: Vdss
[21] = target: T1, Muscarinic acetylcholine receptor M3; assay: Displacement of [3H]-NMS from human recombinant M3 receptor expressed in CHO cells after 24 hrs by filter binding assay; format: cell-based
Target sequence in this assay (P20309 whole entry): as the sequence (P20309 whole entry, looked up) above

[22] = target: T1, Muscarinic acetylcholine receptor M3; settings: CHO; remark: listed apart in the source
Target sequence in this assay (P20309 whole entry, looked up): as the sequence (P20309 whole entry, looked up) above

[23] = target: Muscarinic acetylcholine receptor M3 (Cavia porcellus, UniProt Q8VH26); assay: Antagonist activity at M3 receptor in Dunkin-Hartley guinea pig tracheal strips assessed as inhibition of electrically field-stimulated contractile response after 8 hrs; format: functional
Chain of Muscarinic acetylcholine receptor M3 (Cavia porcellus, UniProt Q8VH26) (Q8VH26 whole entry): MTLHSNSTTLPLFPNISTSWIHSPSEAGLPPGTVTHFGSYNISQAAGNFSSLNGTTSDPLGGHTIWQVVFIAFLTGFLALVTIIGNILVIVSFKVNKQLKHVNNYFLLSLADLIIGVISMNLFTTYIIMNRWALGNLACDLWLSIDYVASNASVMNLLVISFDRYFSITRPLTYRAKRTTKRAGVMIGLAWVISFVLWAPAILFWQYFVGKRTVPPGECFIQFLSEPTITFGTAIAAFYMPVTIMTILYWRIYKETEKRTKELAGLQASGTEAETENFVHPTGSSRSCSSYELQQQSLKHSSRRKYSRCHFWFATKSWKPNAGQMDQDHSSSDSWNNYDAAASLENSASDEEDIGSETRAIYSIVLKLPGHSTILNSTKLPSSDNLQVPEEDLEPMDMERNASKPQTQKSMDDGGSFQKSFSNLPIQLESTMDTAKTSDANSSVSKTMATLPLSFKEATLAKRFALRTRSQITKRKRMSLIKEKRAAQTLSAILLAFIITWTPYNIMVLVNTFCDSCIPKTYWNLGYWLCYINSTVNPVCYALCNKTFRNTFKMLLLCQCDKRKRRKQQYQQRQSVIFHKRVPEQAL

[24] = target: Muscarinic acetylcholine receptor M3 (Cavia porcellus) (UniProt Q8VH26); assay: Antagonist activity at M3 receptor in Dunkin-Hartley guinea pig tracheal strips assessed as time taken for electrically field-stimulated contractile response to recover by 25 percent of inhibition at Emax after 2 hrs; format: functional
Chain of Muscarinic acetylcholine receptor M3 (Cavia porcellus) (Q8VH26 1-587): as the sequence (Q8VH26 whole entry) above

microsomal CLint [1]: > 282 µL/min/mg
T1/2 [4]: 83.3 h
Ki [5]: 0.137 nM
T1/2 [6]: 9.78 h
hepatocyte CLint [8]: 96 µL/min/1e6 cells
Ki [9]: 0.169 nM
Papp A→B [11]: 7 ×10⁻⁶ cm/s
clearance [12]: 134 mL/min/kg
T1/2 [13]: > 24 h
half-life [15]: 54 min
CL free [17]: 2065 mL/min/kg
microsomal CLint [18]: 221 µL/min/mg
pKb [19]: 9.6
Vd [20]: 8.4 L/kg
Ki [21]: 0.128 nM
T1/2 [22]: > 24 h
IC50 [23]: 1.53 nM
TIME [24]: > 16 h
SMILES: CC(C)(CCC(C(N)=O)(c1ccccc1)c1ccccc1)N1CC(Oc2cccc(O)c2)C1 [PF-03635659]
ED50 [2]: 3 µg
ID50 [3]: 3 µg
Time [7]: 32 h
Activity [10]: Toxic
Activity [14]: Non-toxic
Activity [16]: Non-toxic
